Test results published in ChEMBL document CHEMBL2074086, “Cloning, in vitro expression, and tissue distribution of a human prostaglandin transporter cDNA(hPGT)” (J Clin Invest, 1996).

Biological target: Solute carrier organic anion transporter family member 2A1 (Homo sapiens, UniProt Q92959)
Test: TP_TRANSPORTER: uptake in PGT-expressing HeLa cells
Type: functional, cell-based

SMILES	K1/2	Activity
CCCCC[C@H](O)/C=C/[C@H]1[C@H](O)CC(=O)[C@@H]1CCCCCCC(=O)O [ALPROSTADIL]	0.082 µM	–
CCCCC[C@H](O)/C=C/[C@H]1[C@H](O)CC(=O)[C@@H]1C/C=C\CCCC(=O)O [DINOPROSTONE]	0.1 µM	–
CCCCC[C@H](O)/C=C/[C@@H]1[C@@H](C/C=C\CCCC(=O)O)[C@@H](O)C[C@H]1O [DINOPROST]	0.092 µM	–
CC#CCC(C)[C@H](O)/C=C/[C@@H]1[C@H]2C/C(=C/CCCC(=O)O)C[C@H]2C[C@H]1O (stereo partly specified) [ILOPROST]	–	is not a substrate [-]
CCCCC[C@H](O)/C=C/[C@H]1C(=O)C[C@H](O)[C@@H]1C/C=C\CCCC(=O)O [PROSTAGLANDIN D2]	0.083 µM	–
CCCCC[C@H](O)/C=C/[C@H]1OC(O)C[C@H](O)[C@@H]1C/C=C\CCCC(=O)O (stereo partly specified) [THROMBOXANE B2]	0.182 µM	–
